PubChem BioAssay (NCI)
Where “and” joins values, the source holds several entries; their conditions need not be identical. Equal values may be shown once.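 The compound was tested at five concentrations on cells cultured in 96-well plates, with a 48-hour exposure period. GI50 is the concentration that inhibits growth by half. TGI: concentration producing complete growth inhibition.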

Tests used:
Assay in all cases: DTP human tumour cell line panel, 48 h
[1] = test system: HCT-116 colon
[2] = test system: BT-549 breast
[3] = test system: MOLT-4 leukemia
[4] = test system: M14 melanoma
[5] = test system: COLO 205 colon
[6] = test system: NCI-H460 lung
[7] = test system: LOX IMVI melanoma
[8] = test system: UACC-257 melanoma
[9] = test system: PC-3 prostate
[10] = test system: HOP-92 NSCLC

Compound	GI50 [1]	TGI [1]	GI50 [2]	TGI [2]	GI50 [3]	TGI [3]	GI50 [4]	TGI [4]	GI50 [5]	TGI [5]	GI50 [6]	TGI [6]	GI50 [7]	TGI [7]	GI50 [8]	TGI [8]	GI50 [9]	TGI [9]	GI50 [10]	TGI [10]
O=C(Nc1ccccc1O)c1cccc(NC2=C(Cl)C(=O)N(Cc3ccccc3)C2=O)c1	2970 nM	12.1 µM	11.9 µM	29.8 µM	712 nM	4.01 µM	4350 nM	11.3 µM	13.2 µM	40 µM	4.22 µM	14.9 µM	1620 nM	3.6 µM	4.44 µM	16.6 µM	13700 nM	26.6 µM	10500 nM	24.3 µM
COc1cc2nc(-c3cnc(N(C)C)nc3)nc(NC3CCN(Cc4ccccc4)CC3)c2cc1OC	316 nM	1.32 µM	1.71 µM	3.43 µM	2280 nM	6.36 µM	1500 nM	3.06 µM	0.637 µM	2.09 µM	0.412 µM	1.7 µM	1520 nM	3.2 µM	1.79 µM	3.66 µM	1460 nM	3.09 µM	1030 nM	2.46 µM
CC(=O)N1c2ccccc2C23CCN(C)CC4C(C)OCC(C4CC2=O)C13 (centres undefined)	–	> 100 µM	–	> 100 µM	–	> 100 µM	–	> 100 µM	–	> 100 µM	–	> 100 µM	–	> 100 µM	–	> 100 µM	–	> 100 µM	–	> 100 µM
CCC(C)(C)C(=O)O[C@H]1C[C@@H](C)C=C2C=C[C@H](C)[C@H](CC[C@@H]3C[C@@H](O)CC(=O)O3)[C@H]21	1250 nM	5.43 µM and 6.98 µM	4.61 µM	18.2 µM	14600 nM	31.7 µM and > 30 µM	2890 nM	16.7 µM and 8.09 µM	4.14 µM	14.7 µM and 23.6 µM	3.91 µM	14.1 µM and > 30 µM	390 nM	6.43 µM	10.8 µM	25 µM and > 30 µM	367 nM	14.5 µM	33.5 nM	–
